For this test, the target named is MAPK14 (human) (UniProt Q16539). Kind of test: Inhibition of LPS Stimulated TNF Production by U937 Cells. Particulars: for inhibition: concentration not given here.

The structures appear in SMILES notation.

Chain of MAPK14 (human) (Q16539 whole entry, looked up): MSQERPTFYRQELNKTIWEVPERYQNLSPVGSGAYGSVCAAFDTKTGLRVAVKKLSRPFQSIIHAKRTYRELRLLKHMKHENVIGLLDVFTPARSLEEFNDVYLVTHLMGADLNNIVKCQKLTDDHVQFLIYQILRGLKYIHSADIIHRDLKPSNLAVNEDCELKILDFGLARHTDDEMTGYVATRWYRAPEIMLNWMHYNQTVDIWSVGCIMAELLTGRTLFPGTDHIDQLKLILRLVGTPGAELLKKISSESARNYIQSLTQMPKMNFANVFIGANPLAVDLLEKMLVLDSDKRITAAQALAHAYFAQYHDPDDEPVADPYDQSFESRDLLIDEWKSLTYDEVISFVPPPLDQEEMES

As to `CC(C)c1cc(C(C)C)c(C(=O)N[C@@H](C)c2[nH]nc(-c3ccc(F)cc3)c2-c2ccncc2)c(C(C)C)c1`, the inhibition – broadly, the drop in the measured response relative to a control, in per cent – stood at 42%.

Molecule `C[C@H](NC(=O)c1cc2ccccc2s1)c1[nH]nc(-c2ccc(F)cc2)c1-c1ccncc1` had an inhibition of 48%. In the case of `COc1ccc(C)cc1S(=O)(=O)N[C@H](C)c1[nH]nc(-c2ccc(F)cc2)c1-c1ccncc1`, the inhibition was determined as 92%. The same measure, in the same setting: under `C[C@@H](NC(=O)c1cccc(F)c1)c1[nH]nc(-c2ccc(F)cc2)c1-c1ccncc1` stands 52%. Take `C[C@@H](NS(=O)(=O)c1ccc(C#N)cc1)c1[nH]nc(-c2ccc(F)cc2)c1-c1ccncc1`: the inhibition turned out to be 90%. Molecule `C[C@@H](NS(=O)(=O)c1cccc(Cl)c1Cl)c1[nH]nc(-c2ccc(F)cc2)c1-c1ccncc1` came in with an inhibition of 83%. `Cc1c(-c2ccncc2)c(-c2ccc(F)cc2)nn1CC(=O)NCCc1cccs1` showed an inhibition of 36%.

With `CC(C)=CC(=O)N[C@H](Cc1ccccc1)c1[nH]nc(-c2ccc(F)cc2)c1-c1ccncc1`, the half-maximal inhibitory concentration (IC50) – broadly, the concentration at which inhibition is half-maximal – was above 1000 nM. Molecule `C[C@H](NS(=O)(=O)c1cccc(Cl)c1)c1[nH]nc(-c2ccc(F)cc2)c1-c1ccncc1` came in with an inhibition of 93%. On the same count and under the same terms, under `C[C@@H](NS(=O)(=O)c1cc(Cl)cc(Cl)c1)c1[nH]nc(-c2ccc(F)cc2)c1-c1ccncc1` stands 91%. As for `O=C(Nc1ccccc1F)N1CCC(c2[nH]nc(-c3ccc(F)cc3)c2-c2ccncc2)CC1`, the IC50 stood at 92 nM. This lies in the double-digit nanomolar range.

Molecule `CCS(=O)(=O)N[C@H](C)c1[nH]nc(-c2ccc(F)cc2)c1-c1ccncc1` had an inhibition of 48%. `Cc1n[nH]c(-c2ccccc2)c1-c1ccncc1`: the IC50 is 578 nM. Regarding `O=C(NCCc1[nH]nc(-c2ccc(F)cc2)c1-c1ccncc1)c1cccc(Cl)c1Cl`, the inhibition was determined as 11%. As to `O=C(NCc1[nH]nc(-c2ccc(F)cc2)c1-c1ccncc1)c1cc(F)cc(F)c1`, the inhibition is 34%. `CCS(=O)(=O)N1CCC(c2[nH]nc(-c3ccc(F)cc3)c2-c2ccncc2)CC1` returned a 50% inhibitory concentration (IC50) of 250 nM. `C[C@@H](NC(=O)c1cccc(F)c1F)c1[nH]nc(-c2ccc(F)cc2)c1-c1ccncc1` registered an inhibition of 64%. `C[C@@H](NC(=O)c1cc(F)c(F)cc1F)c1[nH]nc(-c2ccc(F)cc2)c1-c1ccncc1` returned an inhibition of 52%.

`CCS(=O)(=O)N[C@@H](CCC(=O)NC)c1[nH]nc(-c2ccc(F)cc2)c1-c1ccncc1`: the inhibition came out at 13%. The molecule `CC(C)C(=O)N[C@H](Cc1ccccc1)c1[nH]nc(-c2ccc(F)cc2)c1-c1ccncc1` came in with a 50% inhibitory concentration (IC50) above 1000 nM.

`O=S(=O)(c1ccc(F)c(F)c1)N1CCC(c2[nH]nc(-c3ccc(F)cc3)c2-c2ccncc2)CC1` displayed an IC50 above 1000 nM.

As for `O=S(=O)(c1cccc(Cl)c1Cl)N1CCC(c2[nH]nc(-c3ccc(F)cc3)c2-c2ccncc2)CC1`, the inhibition stood at 22%.

The molecule `COc1ccc(OC)c(S(=O)(=O)N2CCC(c3[nH]nc(-c4ccc(F)cc4)c3-c3ccncc3)CC2)c1` registered an inhibition of 24%. For `Fc1ccc(-c2n[nH]cc2-c2ccnc(NCCN3CCOCC3)c2)cc1`, the IC50 turned out to be 539 nM.

Regarding `COc1ccccc1C(=O)N[C@H](Cc1ccccc1)c1[nH]nc(-c2ccc(F)cc2)c1-c1ccncc1`, the IC50 is above 1000 nM and the inhibition came to 2%. On to `O=S(=O)(c1cccc(C(F)(F)F)c1)N1CCC(c2[nH]nc(-c3ccc(F)cc3)c2-c2ccncc2)CC1`, for which the inhibition worked out at 10%.

For `C[C@H](NS(=O)(=O)c1ccc(Cl)s1)c1[nH]nc(-c2ccc(F)cc2)c1-c1ccncc1`, the inhibition was determined as 95%. Take `O=S(=O)(NCc1[nH]nc(-c2ccc(F)cc2)c1-c1ccncc1)c1ccc(C(F)(F)F)cc1`: the inhibition was found to be 60%. In turn, `O=C(NCCc1[nH]nc(-c2ccc(F)cc2)c1-c1ccncc1)c1ccc(F)cc1C(F)(F)F` showed an inhibition of 29%.

As to `CNC(=O)CC[C@H](NC(=O)Nc1ccccc1F)c1[nH]nc(-c2ccc(F)cc2)c1-c1ccncc1`, the IC50 is above 1000 nM.

Molecule `C[C@H](NS(=O)(=O)c1ccccc1Cl)c1[nH]nc(-c2ccc(F)cc2)c1-c1ccncc1` yielded an inhibition of 94%.

Source of the values: the Kinase Knowledgebase extract (Sharma et al. 2016).
